Data published in ChEMBL document CHEMBL3885861, “Open TG-GATES”.

Organism: Rattus norvegicus
Test: Open TG-GATES - Regimen: Daily Repeat
Assay type: toxicity, organism-based, Sprague-Dawley
Design: regimen Daily Repeat, gender Male, age 6 weeks
Details: in vivo, sc, 0.2 mg/kg, route subcutaneous injection, dose 200 ug/Kg, dose level High; for APTT / Bas / Eos / Fbg / Hb / Ht / Lym / MCH / MCHC / MCV / Mono / Neu / PT / Plat / RBC / Ret / WBC: tissue Blood; for KIDNEY_L / KIDNEY_R / KIDNEY_TOTAL: tissue Kidney; for LIVER: tissue Liver; for A/G / ALP / ALT / AST / BUN / CRE / Ca / Cl / DBIL / GLC / IP / K / LDH / Na / PL / RALB / TBIL / TC / TG / TP / gamma-GTP: tissue Plasma

CC(=O)O.N=C(N)NCCC[C@@H](NC(=O)[C@@H]1CCCN1C(=O)[C@@H]1CSSCCC(=O)N[C@@H](Cc2ccc(O)cc2)C(=O)N[C@@H](Cc2ccccc2)C(=O)N[C@@H](CCC(N)=O)C(=O)N[C@@H](CC(N)=O)C(=O)N1)C(=O)NCC(N)=O [DESMOPRESSIN ACETATE]
TERMINAL_BW (72 h, time 3 day): 235.3 g
APTT (72 h, time 3 day): 17.2 s
Bas (72 h, time 3 day): 0%
Eos (72 h, time 3 day): 1%
Fbg (72 h, time 3 day): 258 mg/dL
Hb (72 h, time 3 day): 13.4 g/dL
Ht (72 h, time 3 day): 40.8%
Lym (72 h, time 3 day): 67.8%
MCH (72 h, time 3 day): 21.1 pg
MCHC (72 h, time 3 day): 32.8%
MCV (72 h, time 3 day): 64.3 fL
Mono (72 h, time 3 day): 11.8%
Neu (72 h, time 3 day): 18.8%
PT (72 h, time 3 day): 12.2 s
Plat (72 h, time 3 day): 126.8 x10_4/uL
RBC (72 h, time 3 day): 635.6 x10_4/ul
Ret (72 h, time 3 day): 6.8%
WBC (72 h, time 3 day): 73.8 x10_2/uL
KIDNEY_L (72 h, time 3 day): 1.1 g
KIDNEY_R (72 h, time 3 day): 1.1 g
KIDNEY_TOTAL (72 h, time 3 day): 2.2 g
LIVER (72 h, time 3 day): 10 g
A/G (72 h, time 3 day): 2
ALP (72 h, time 3 day): 1277.4 IU/L
ALT (72 h, time 3 day): 32 IU/L
AST (72 h, time 3 day): 69.2 IU/L
BUN (72 h, time 3 day): 20 mg/dL
CRE (72 h, time 3 day): 0.4 mg/dL
Ca (72 h, time 3 day): 11.3 mg/dL
Cl (72 h, time 3 day): 102.8 meq/L
DBIL (72 h, time 3 day): 0.012 mg/dL
GLC (72 h, time 3 day): 196.4 mg/dL
IP (72 h, time 3 day): 7.6 mg/dL
K (72 h, time 3 day): 5.5 meq/L
LDH (72 h, time 3 day): 179.6 IU/L
Na (72 h, time 3 day): 136 meq/L
PL (72 h, time 3 day): 138.6 mg/dL
RALB (72 h, time 3 day): 3.7 g/dL
TBIL (72 h, time 3 day): 0.042 mg/dL
TC (72 h, time 3 day): 75.6 mg/dL
TG (72 h, time 3 day): 85.2 mg/dL
TP (72 h, time 3 day): 5.6 g/dL
gamma-GTP (72 h, time 3 day): 1 IU/L
TERMINAL_BW ([…], time 7 day): 258.6 g
TERMINAL_BW ([…], time 14 day): 323.7 g
TERMINAL_BW ([…], time 28 day): 400.9 g
APTT ([…], time 7 day): 18.6 s
Bas ([…], time 7 day): 0%
Eos ([…], time 7 day): 1%
Fbg ([…], time 7 day): 251.8 mg/dL
Hb ([…], time 7 day): 13.6 g/dL
Ht ([…], time 7 day): 41.4%
Lym ([…], time 7 day): 75%
MCH ([…], time 7 day): 20.7 pg
MCHC ([…], time 7 day): 32.9%
MCV ([…], time 7 day): 63.1 fL
Mono ([…], time 7 day): 8.2%
Neu ([…], time 7 day): 16.2%
PT ([…], time 7 day): 13.4 s
Plat ([…], time 7 day): 122 x10_4/uL
RBC ([…], time 7 day): 656.4 x10_4/ul
Ret ([…], time 7 day): 7.3%
WBC ([…], time 7 day): 112.4 x10_2/uL
APTT ([…], time 14 day): 17 s
Bas ([…], time 14 day): 0%
Eos ([…], time 14 day): 1.2%
Fbg ([…], time 14 day): 244.8 mg/dL
Hb ([…], time 14 day): 13.8 g/dL
Ht ([…], time 14 day): 42.7%
Lym ([…], time 14 day): 73.2%
MCH ([…], time 14 day): 20.5 pg
MCHC ([…], time 14 day): 32.4%
MCV ([…], time 14 day): 63.2 fL
Mono ([…], time 14 day): 8.2%
Neu ([…], time 14 day): 17.4%
PT ([…], time 14 day): 11.9 s
Plat ([…], time 14 day): 110.6 x10_4/uL
RBC ([…], time 14 day): 675.8 x10_4/ul
Ret ([…], time 14 day): 6.1%
WBC ([…], time 14 day): 104.8 x10_2/uL
APTT ([…], time 28 day): 18.9 s
Bas ([…], time 28 day): 0%
Eos ([…], time 28 day): 1%
Fbg ([…], time 28 day): 260.8 mg/dL
Hb ([…], time 28 day): 15 g/dL
Ht ([…], time 28 day): 45.6%
Lym ([…], time 28 day): 80.4%
MCH ([…], time 28 day): 18.8 pg
MCHC ([…], time 28 day): 32.8%
MCV ([…], time 28 day): 57.4 fL
Mono ([…], time 28 day): 6.4%
Neu ([…], time 28 day): 11.8%
PT ([…], time 28 day): 12.2 s
Plat ([…], time 28 day): 112.2 x10_4/uL
RBC ([…], time 28 day): 795.2 x10_4/ul
Ret ([…], time 28 day): 3.1%
WBC ([…], time 28 day): 95 x10_2/uL
KIDNEY_L ([…], time 7 day): 1.3 g
KIDNEY_R ([…], time 7 day): 1.3 g
KIDNEY_TOTAL ([…], time 7 day): 2.6 g
KIDNEY_L ([…], time 14 day): 1.5 g
KIDNEY_R ([…], time 14 day): 1.5 g
KIDNEY_TOTAL ([…], time 14 day): 3 g
KIDNEY_L ([…], time 28 day): 1.8 g
KIDNEY_R ([…], time 28 day): 1.8 g
KIDNEY_TOTAL ([…], time 28 day): 3.6 g
LIVER ([…], time 7 day): 11.3 g
LIVER ([…], time 14 day): 13.6 g
LIVER ([…], time 28 day): 14.7 g
A/G ([…], time 7 day): 2
ALP ([…], time 7 day): 1056 IU/L
ALT ([…], time 7 day): 30.2 IU/L
AST ([…], time 7 day): 67.6 IU/L
BUN ([…], time 7 day): 21.2 mg/dL
CRE ([…], time 7 day): 0.4 mg/dL
Ca ([…], time 7 day): 13.2 mg/dL
Cl ([…], time 7 day): 98.8 meq/L
DBIL ([…], time 7 day): 0.014 mg/dL
GLC ([…], time 7 day): 200.8 mg/dL
IP ([…], time 7 day): 7.4 mg/dL
K ([…], time 7 day): 4.8 meq/L
LDH ([…], time 7 day): 169.6 IU/L
Na ([…], time 7 day): 129.8 meq/L
PL ([…], time 7 day): 130 mg/dL
RALB ([…], time 7 day): 3.6 g/dL
TBIL ([…], time 7 day): 0.042 mg/dL
TC ([…], time 7 day): 71.4 mg/dL
TG ([…], time 7 day): 90.2 mg/dL
TP ([…], time 7 day): 5.5 g/dL
gamma-GTP ([…], time 7 day): 1 IU/L
A/G ([…], time 14 day): 1.9
ALP ([…], time 14 day): 1196.4 IU/L
ALT ([…], time 14 day): 31.8 IU/L
AST ([…], time 14 day): 69.2 IU/L
BUN ([…], time 14 day): 20.8 mg/dL
CRE ([…], time 14 day): 0.4 mg/dL
Ca ([…], time 14 day): 10.7 mg/dL
Cl ([…], time 14 day): 105.6 meq/L
DBIL ([…], time 14 day): 0.014 mg/dL
GLC ([…], time 14 day): 207 mg/dL
IP ([…], time 14 day): 7.5 mg/dL
K ([…], time 14 day): 5 meq/L
LDH ([…], time 14 day): 125.6 IU/L
Na ([…], time 14 day): 138.6 meq/L
PL ([…], time 14 day): 150.8 mg/dL
RALB ([…], time 14 day): 3.7 g/dL
TBIL ([…], time 14 day): 0.038 mg/dL
TC ([…], time 14 day): 75.6 mg/dL
TG ([…], time 14 day): 119.8 mg/dL
TP ([…], time 14 day): 5.7 g/dL
gamma-GTP ([…], time 14 day): 1 IU/L
A/G ([…], time 28 day): 1.6
ALP ([…], time 28 day): 872.6 IU/L
ALT ([…], time 28 day): 28 IU/L
AST ([…], time 28 day): 62.8 IU/L
BUN ([…], time 28 day): 22 mg/dL
CRE ([…], time 28 day): 0.4 mg/dL
Ca ([…], time 28 day): 9.2 mg/dL
Cl ([…], time 28 day): 105.6 meq/L
DBIL ([…], time 28 day): 0.01 mg/dL
GLC ([…], time 28 day): 182.8 mg/dL
IP ([…], time 28 day): 6.5 mg/dL
K ([…], time 28 day): 4.8 meq/L
LDH ([…], time 28 day): 160 IU/L
Na ([…], time 28 day): 138.4 meq/L
PL ([…], time 28 day): 153.2 mg/dL
RALB ([…], time 28 day): 3.8 g/dL
TBIL ([…], time 28 day): 0.046 mg/dL
TC ([…], time 28 day): 88.4 mg/dL
TG ([…], time 28 day): 117.6 mg/dL
TP ([…], time 28 day): 6.1 g/dL
gamma-GTP ([…], time 28 day): 0.6 IU/L
